The test system of one data set is L5178Y. Description: Cytotoxicity against mouse L5178Y cells. The class given is functional. The following applies: read-out: ED50 (the source's name).
The test system of another data set is KB. Description: Cytotoxicity against human KB cells. Format: functional. The following applies: read-out: ED50 (the source's name).
Data set [1] concerns Mus musculus. Description: Toxicity in ddY mouse xenografted with mouse solid Ehrlich carcinoma cells assessed as mortality at 20 mg/kg, ip qd for 3 to 8 days measured after 10 days. Format: organism-based. Also on record: dose 20 mg/kg, route intraperitoneal. The settings on record: in vivo, 240 h.
A short description of data set [2]: Antitumor activity against mouse solid EAC cells xenografted in ddY mouse assessed as tumor weight at 7 mg/kg, ip qd for 3 to 8 days measured after 10 days. The class given is functional, Ehrlich. The following applies: route intraperitoneal.
The subject of data set [3] is Mus musculus. Description: Toxicity in ddY mouse xenografted with mouse solid Ehrlich carcinoma cells assessed as mortality at 7 mg/kg, ip qd for 3 to 8 days measured after 10 days. Format: organism-based. On the set-up: dose 7 mg/kg, route intraperitoneal. The following applies: in vivo, 240 h.
The nature of data set [4]: Antitumor activity against mouse solid EAC cells xenografted in ddY mouse at 7 mg/kg, ip qd for 3 to 8 days measured after 10 days relative to control. The class given is functional, Ehrlich. The settings on record: route intraperitoneal.
Data set [5] in a line: Antitumor activity against mouse EAC cells xenografted in ddY mouse assessed as median survival time at 7 mg/kg, ip qd for 2 to 8 days. The settings on record: route intraperitoneal. Format: functional, Ehrlich.
Data set [6] can be described thus: Antitumor activity against mouse solid EAC cells xenografted in ddY mouse at 20 mg/kg, ip qd for 3 to 8 days measured after 10 days relative to control. Format: functional, Ehrlich. The following applies: route intraperitoneal.
Data set [7] in a line: Antitumor activity against mouse solid EAC cells xenografted in ddY mouse assessed as tumor weight at 20 mg/kg, ip qd for 3 to 8 days measured after 10 days. The class given is functional, Ehrlich. The following applies: route intraperitoneal.
The nature of data set [8]: Antitumor activity against mouse EAC cells xenografted in ddY mouse assessed as median survival time at 20 mg/kg, ip qd for 2 to 8 days. Format: functional, Ehrlich. The following applies: route intraperitoneal.

Converted amounts (≈) assume the structure as drawn.

As usually defined, the T/C is the ratio of treated to control.

With `C=C(C)C(O)Cc1c(O)c(Cc2c(O)c(C(C)=O)c(O)c(C)c2OC)c(O)c(C(=O)CCC)c1O` (racemic) [MALLOTOLERIN], the EC50 in the data set on L5178Y is 0.82 µg/mL (≈ 1.68 µM); in the data set on KB it was 0.95 µg/mL (≈ 1.94 µM).
Regarding `COc1c(C)c(O)c(C(C)=O)c(O)c1Cc1c(O)c2c(c(C(C)=O)c1O)OC(C)(C)C=C2` [MALLOTOCHROMENE], the EC50 with L5178Y was found to be 1.25 µg/mL (≈ 2.83 µM); in the data set on KB, 2.1 µg/mL (≈ 4.75 µM).
In the case of `C=C(C)C(O)Cc1c(O)c(Cc2c(O)c(C(C)=O)c(O)c(C)c2OC)c(O)c(C(C)=O)c1O` (racemic), the EC50 in the data set with L5178Y was 2.45 µg/mL (≈ 5.32 µM); with KB it was 1.22 µg/mL (≈ 2.65 µM).
Take `COc1c(C)c(O)c(C(C)=O)c(O)c1Cc1c(O)c(CC=C(C)C)c(O)c(C(C)=O)c1O` [MALLOTOJAPONIN]: the Activity entry in the data set with Mus musculus [1] is “Non-toxic”; in [2] it was 0.93 g; with Mus musculus [3], “Non-toxic”; in [7] it was 0.59 g. For the same compound, the EC50 in the data set on L5178Y was found to be 0.74 µg/mL (≈ 1.66 µM); in the data set with KB it was 0.58 µg/mL (≈ 1.3 µM). Further, the T/C in data set [4] is listed as 78.1%; in data set [6] it was 49.5%. The MST was found to be 20 days in data set [5] and 14 days in data set [8].
Turning to `COc1c(C)c(O)c(C(C)=O)c(O)c1Cc1c(O)c2c(c(C(C)=O)c1O)OC(C)(C)C(O)C2` (racemic) [MALLOTOCHROMANOL], the EC50 in the data set with L5178Y and in the data set on KB was over 100 µg/mL each time.

(Values after ChEMBL document CHEMBL1149003, “Studies on cytotoxic constituents in pericarps of Mallotus japonicus, Part II” (J Nat Prod, 1986).)
